Measured values reported in US20240425523A1, “Compounds for the Degradation of EGFR Kinase” (Beigene Switzerland GMBH, priority 2023, published 2024).

Columns and labels:
Format in all cases: cell-based
[1] = target: T1, EGFR-L858R/C797S (H1975-clone #8 cells) (Homo sapiens, UniProt P00533, C797S/L858R); test: Cell degradation of EGFR, HTRF assay, H1975-clone#8 (L858R/C797S) cells; conditions: 16 h treatment; for DC50: EGFR degradation; for Dmax: maximum percentage of degradation
T1 construct: expressed in transfected cells; host or cells: H1975 (endogenous EGFR knocked out, clone #8)

[2] = target: T2, p-EGFR L858R (BaF3-L858R cells) (Homo sapiens, UniProt P00533, L858R); test: Cell p-EGFR inhibition assay, HTRF, BaF3-L858R cells; conditions: 16 h treatment; for Imax (%): maximum percentage of pEGFR inhibition; for IC50: pEGFR inhibition
T2 construct: host or cells: BaF3
In short: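 BaF3-L858R cells treated 16 h at 37 °C, 5% CO2 with compound from 10 uM top, 5-fold dilutions, 8 doses, in 0.1% DMSO medium. Lysates read overnight by HTRF p-EGFR antibodies; IC50 fitted to four-parameter curve against DMSO high control.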

[3] = target: T3, EGFR L858R (BaF3-L858R cells) (Homo sapiens, UniProt P00533, L858R); test: Cell degradation of EGFR, HTRF assay, BaF3-L858R cells; conditions: 16 h treatment; for DC50: EGFR degradation; for Dmax: maximum percentage of degradation
T3 construct: host or cells: BaF3
In short: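 EGFR L858R levels measured by HTRF antibody pair in lysed BaF3-L858R cells after 16 h compound exposure (8-point 5-fold series from 10 uM final, 37° C). Degradation is relative to DMSO-only cells; DC50 fitted with Hill equation, Dmax taken as the largest percent loss.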

[4] = target: p-EGFR Del19/C797S (H1975-clone #23 cells) (Homo sapiens, UniProt P00533); test: Cell p-EGFR inhibition assay, HTRF, H1975-clone#23 (DEL19/C797S) cells; conditions: 16 h treatment; for Imax (%): maximum percentage of pEGFR inhibition; for IC50: pEGFR inhibition
In short: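 Phospho-EGFR read by overnight HTRF on lysates, normalized to DMSO-treated high control; IC50, Hill slope and Imax fitted. Compounds were applied for 16 h (10 uM top, 5-fold steps, 8 doses) to an H1975 single clone carrying only exogenous Del19/C797S EGFR after sgRNA knockout of endogenous copies.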

| SMILES | DC50 [1] | Dmax [1] | Imax (%) [2] | IC50 [2] | DC50 [3] | Dmax [3] | Imax (%) [4] | IC50 [4] |
| --- | --- | --- | --- | --- | --- | --- | --- | --- |
| Cc1cc2cc(n1)-c1cnn(C)c1OC[C@H]1CCC(C1)CN1/C(=N/C2=O)Nc2ccc(N3CCN([C@H]4CCN(c5ccc(C6CCC(=O)NC6=O)nc5C)C[C@@H]4F)CC3)cc21 (stereo partly drawn) [Example 76, 3-(5-((3S,4S)-4-(4-((7^1R,7^3S,E)-1^1,2^6-dimethyl-3-oxo-5^2,5^3-dihydro-1^1H,5^1H-9-oxa-4-aza-5(2,1)-benzo[d]imidazola-2(2,4)-pyridina-1(4,5)-pyrazola-7(1,3)-cyclopentanacyclononaphane-5^6-yl)piperazin-1-yl)-3-fluoropiperidin-1-yl)-6-methylpyridin-2-yl)piperidine-2,6-dione] | 3.87 nM | 79.4% | 94.9% | 7.8 nM | 3.23 nM | 84.8% | 101% | 0.7 nM |
| COC[C@@H]1CN(c2ccc3c(c2)N2CC4CC[C@H](COc5c(c(C(F)(F)F)nn5C)-c5cc(cc(C)n5)C(=O)/N=C/2N3)C4)CCN1C1CCN(c2cc(F)c([C@H]3CCC(=O)NC3=O)c(F)c2)CC1 [Example 77, (R)-3-(4-(4-((S)-4-((7^1R,7^3S,E)-1^1,2^6-dimethyl-3-oxo-1^3-(trifluoromethyl)-5^2,5^3-dihydro-1^1H,5^1H-9-oxa-4-aza-5(2,1)-benzo[d]imidazola-2(2,4)-pyridina-1(4,5)-pyrazola-7(1,3)-cyclopentanacyclononaphane-5^6-yl)-2-(methoxymethyl)piperazin-1-yl)piperidin-1-yl)-2,6-difluorophenyl)piperidine-2,6-dione] | 5.5 nM | 85.7% | 91.3% | 10.9 nM | 3.4 nM | 89.5% | 99.2% | 9.5 nM |
| Cc1cc2cc(n1)-c1cnn(C)c1OC[C@H]1CCC(C1)CN1/C(=N/C2=O)Nc2ccc(N3CCN(CCc4cc(F)c(C5CCC(=O)NC5=O)nc4C)CC3)cc21 (some centres unmarked) [Example 78, 3-(5-(2-(4-((7^1R,7^3S,E)-1^1,2^6-dimethyl-3-oxo-5^2,5^3-dihydro-1^1H,5^1H-9-oxa-4-aza-5(2,1)-benzo[d]imidazola-2(2,4)-pyridina-1(4,5)-pyrazola-7(1,3)-cyclopentanacyclononaphane-5^6-yl)piperazin-1-yl)ethyl)-3-fluoro-6-methylpyridin-2-yl)piperidine-2,6-dione] | 4.18 nM | 65.5% | 92.5% | 16.9 nM | 3.68 nM | 87.8% | 100.6% | 1.2 nM |
| Cc1cc2cc(n1)-c1c(C)nn(C)c1OC[C@H]1CCC(C1)CN1/C(=N/C2=O)Nc2ccc(N3CCN([C@@H]4CCN(c5ccc(C6CCC(=O)NC6=O)nc5C)C[C@@H]4F)CC3)cc21 (stereo partly drawn) [Example 79, 3-(5-((3S,4R)-3-fluoro-4-(4-((7^1R,7^3S,E)-1^1,1^3,2^6-trimethyl-3-oxo-5^2,5^3-dihydro-1^1H,5^1H-9-oxa-4-aza-5(2,1)-benzo[d]imidazola-2(2,4)-pyridina-1(4,5)-pyrazola-7(1,3)-cyclopentanacyclononaphane-5^6-yl)piperazin-1-yl)piperidin-1-yl)-6-methylpyridin-2-yl)piperidine-2,6-dione] | 0.48 nM | 91.7% | 92.7% | 1.1 nM | 0.41 nM | 92.6% | 101.4% | 0.3 nM |
